In paper PMC6395809 (Scientific Reports, 2019):
Where two headings read alike, the source gives them in different places. Each block holds one molecule with its values, some of them ahead of it.

Experiments:
[1] = target: T1, GST_SH3_p130Cas recombinant protein (SH3 domain of p130Cas) (Homo sapiens, UniProt P56945); assay: Fluorescence quenching of Fl-GST_SH3_p130Cas by compounds; assay type: binding
T1 construct: fragment of p130Cas protein (aminoacids 3–71); made in house; host or cells: Escherichia coli BL21
T1 sequence (P56945 3-71): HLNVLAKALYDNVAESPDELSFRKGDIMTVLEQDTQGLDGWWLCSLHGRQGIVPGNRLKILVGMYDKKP
Description: To experimentally validate the binding of compound 1 and 2 on GST_SH3_p130Cas recombinant protein, fluorescence quenching experiments were performed.
The fluorescence spectra of Fl-GST_SH3_p130Cas in the absence and in the presence of 1 and 2 at different concentrations are shown in Fig. 4C.
(§1) All fluorescence spectra were recorded with a Horiba Jobin Yvon Fluorolog3 TCSPC spectrofluorophotometer with 1.0 cm quartz cells For fluorescence experiments, GST_SH3_p130Cas was firstly tagged with fluorescein (Fl-GST_SH3_p130Cas) using a methodology described in the literature[34] see Supporting Information). […] Fluorescence emission spectra of Fl-GST_SH3_p130Cas in the presence of 1 and 2 were obtained using the following concentrations: Fl-GST_SH3_p130Cas = 0.7 μM; 1 and 2 = 0–21 μM.
(§2) The variation in fluorescence emission at 518 nm of Fl-GST_SH3_p130Cas was monitored in all experiments.
Fluorescence data analysis
The obtained spectroscopic data were analysed by a […] non linear least-squares fit procedures reported in Equation 2 2: […]
in which y is the binding derived by measuring fluorescence intensity, [Q] is the concentration of tested compound, Bmax is the maximum amount of protein/compound complex (Fl-GST_SH3_p130Cas/compound) formed at saturation and Kd is the equilibrium dissociation constant. […]

[2] = target: T2, interaction between GST_SH3_p130Cas and MBP_shortPPII_ErbB2 recombinant proteins (Homo sapiens, UniProt P56945); assay: Competitive ELISA binding assay; assay type: biochemical; settings: increasing concentration of compound
T2 construct: fragment of p130Cas protein (aminoacids 3–71); made in house; host or cells: Escherichia coli BL21
T2 sequence (P56945 3-71): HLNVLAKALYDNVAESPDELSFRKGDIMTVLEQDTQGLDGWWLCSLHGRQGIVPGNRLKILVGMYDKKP
Description: The day after, washing steps and saturation were performed using PBS and 3%BSA in PBS at room temperature. MBP-tagged ErbB2 purified recombinant proteins and MBP_ctrl (100 nM/well) were added in 100 μl/well of PBS for 2 h. After washing, anti-MBP mouse monoclonal antibody (0.25 μg/ml) was added for 2 h followed by peroxidase conjugated anti-mouse secondary antibody for 1 h.
For validation of inhibitory activity of selected compounds, ELISA binding assay was setup as reported above.

[3] = target: T3, binding between Fl-GST_SH3_p130Cas and MBP_shortPPII_ErbB2 (Homo sapiens, UniProt P56945); assay: Fluorescence experiment: MBP_shortPPII_ErbB2 added to Fl-GST_SH3_p130Cas/compound complex; settings: compared to compound 2; MBP_shortPPII_ErbB2 0.1-0.75 μM
T3 construct: fragment of p130Cas protein (aminoacids 3–71); made in house; host or cells: Escherichia coli BL21
T3 sequence (P56945 3-71): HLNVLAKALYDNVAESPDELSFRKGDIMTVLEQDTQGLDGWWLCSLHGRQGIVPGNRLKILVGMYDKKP
Description: as §1, with “For” for “All fluorescence spectra were recorded with a Horiba Jobin Yvon Fluorolog3 TCSPC spectrofluorophotometer with 1.0 cm quartz cells For”
as §2

[4] = target: T4, endogenous p130Cas/ErbB2 complex in BT474 cells (Homo sapiens, UniProt P56945); assay: Co-immunoprecipitation of p130Cas/ErbB2 in BT474 cells; assay type: cell-based; settings: BT474 cells pre-treated for 24 hours
T4 construct: endogenous p130Cas/ErbB2 complex in BT474 cells; host or cells: BT474
T4 sequence (P56945 1-870): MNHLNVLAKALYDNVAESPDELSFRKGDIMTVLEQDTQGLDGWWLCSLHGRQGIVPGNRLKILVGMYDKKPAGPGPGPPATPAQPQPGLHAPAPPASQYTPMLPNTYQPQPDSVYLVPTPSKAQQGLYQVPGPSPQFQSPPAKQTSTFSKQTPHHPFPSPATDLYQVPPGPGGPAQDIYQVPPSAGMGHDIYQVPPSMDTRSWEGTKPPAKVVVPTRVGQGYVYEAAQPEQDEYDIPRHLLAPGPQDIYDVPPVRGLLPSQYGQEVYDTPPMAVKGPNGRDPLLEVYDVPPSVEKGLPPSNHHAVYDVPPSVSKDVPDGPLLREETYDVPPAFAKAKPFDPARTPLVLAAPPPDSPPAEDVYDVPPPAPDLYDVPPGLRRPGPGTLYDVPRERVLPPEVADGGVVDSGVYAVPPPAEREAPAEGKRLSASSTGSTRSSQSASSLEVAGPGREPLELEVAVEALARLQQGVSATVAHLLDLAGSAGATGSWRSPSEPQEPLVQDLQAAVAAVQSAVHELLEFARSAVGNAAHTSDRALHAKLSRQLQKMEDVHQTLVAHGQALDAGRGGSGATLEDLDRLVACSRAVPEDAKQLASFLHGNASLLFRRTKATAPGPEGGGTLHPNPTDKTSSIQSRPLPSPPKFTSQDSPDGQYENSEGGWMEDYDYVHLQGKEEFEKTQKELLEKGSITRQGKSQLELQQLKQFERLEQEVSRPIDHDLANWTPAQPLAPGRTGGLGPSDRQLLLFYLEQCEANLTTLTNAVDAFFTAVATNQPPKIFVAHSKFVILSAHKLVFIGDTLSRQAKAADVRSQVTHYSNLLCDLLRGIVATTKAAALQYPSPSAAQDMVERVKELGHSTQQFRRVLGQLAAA
Description: GAPDH expression was used as loading control. Data are represented as mean ± SD. **p < 0.01, ***p < 0.001.
To assess whether these compounds could interfere with p130Cas/ErbB2 association in a cellular context, ErbB2-positive BT474 breast cancer cells were pre-treated for 24 hours with 1 or 2 and subjected to co-immunoprecipitation experiments.

[5] = test system: BT474 breast cancer cells; assay: Cell proliferation assay (MTT), BT474; assay type: cell-based; settings: Homo sapiens, BT-474, 72 h, BT474, 3 days
Description: (§3) For proliferation assay BT474, SKBR3 and SKH100 cells were seeded in 8 replicates at 1000 cells/well concentration (25% confluency) in four different 96-well cell culture plates and then incubated with increasing concentration of 1 and 2 for 3 days. Changes in proliferation rate were detected by MTT assay (11465007001 Roche, Cell Proliferation Kit I) following manufacturer instruction. Sterile DMSO was used as control for non-specific solvent effect on proliferation.

[6] = test system: ErbB2-negative HEK 293T cells; assay: Proliferation assay of ErbB2-negative HEK 293T cell line; assay type: cell-based, human; settings: serial dilutions, three days, MTT
Description: Figure S5. Proliferation assay of ErbB2-negative HEK 293T cell line treated with inhibitory […]
To assess whether 1 and 2 could affect cell proliferation independently from p130Cas/ErbB2 inhibition, ErbB2 ErbB2-negative cell line, HEK 293T cells were treated with serial dilutions of 1 and 2 (or sterile DMSO). After three days, live cells were detected by standard MTT assay. […]
any effect even at high concentration.
(1 picture or pasted object on this page, not shown here)

SKBR3 cells = assay: Combination with Trastuzumab in SKBR3 cells (MTT); assay type: cell-based, human; settings: SKBR3, Trastuzumab 25 μg/ml, three days
Description: (§4) Figure 6 Impact of 1 and 2 compounds on BT474 breast cancer cells. (A) To assess whether 1 and 2 could trigger cytotoxic effects on living cells, BT474 cells were treated with serial dilutions of 1 and 2 (or sterile DMSO). After three days, live cells were detected by standard MTT assay, highlighting the appearance of cytotoxic effects above 75 μM for compound 1. […] Cells were treated with different concentration of the 1 and 2 and proliferation was assayed three days later by performing MTT assay. Results were fitted with four-parameter dose-response curve using GraphPad Prism7 software. […] (E) SKBR3 cells were treated with Trastuzumab (25 μg/ml) either alone or in combination with compound 1 or 2 at the indicated doses. After three days, live cells were detected by standard MTT assay. Data are represented as mean ± SD. *p < 0.05, **p < 0.01. […] After three days, live cells were detected by standard MTT assay. […]
as §3, with “Sterile DMSO was used as control for non-specific solvent effect on proliferation.” left out

[7] = test system: SKH100 Trastuzumab-resistant cells; assay: Combination with Trastuzumab in SKH100 Trastuzumab-resistant cells (MTT); assay type: cell-based, human; settings: SKH100, Trastuzumab 100 μg/ml, three days
Description: as §4
as §3, with “Sterile DMSO was used as control for non-specific solvent effect on proliferation.” left out

BT474 cells = assay: Cytotoxicity assay (MTT); assay type: cell-based, human; settings: BT474, three days, serial dilutions 250-0.12 μM
Description: For cytotoxicity assay BT474 cells were seeded at 5000 cells/well concentration (100% confluency) in a 96-well cell culture plate and incubated with serial dilutions of 1 and 2 compounds (from 250 μM to 0.12 μM). Cytotoxicity was evaluated after 3 days by MTT assay (11465007001 Roche, Cell Proliferation Kit I) following manufacturer instruction.

[8] = test system: SKBR3 breast cancer cells; assay: Cell proliferation assay (MTT), SKBR3; assay type: cell-based; settings: Homo sapiens, SK-BR-3, 72 h, SKBR3, 3 days
Description: as §3

[9] = test system: ErbB2-positive breast cancer patients; settings: cited from earlier work
MBP_shortPPII_ErbB2 [10] = target: T5, MBP_shortPPII_ErbB2 (human (by the printed accession …, UniProt P04626-1 1103-1194)); assay: other fluorescence titration; Fl-GST_SH3_p130Cas fixed at 3.0 μM, MBP_shortPPII_ErbB2 0.05–3.0 μM; emission at 518 nm; nonlinear least-squares fit; settings: both partners purified
T5 construct: ErbB2 cytosolic portion, aminoacids 1103-1194, holds the polyproline type II motif V[RPQPPSP]R at 1145-1153 (isoform 1, P04626-1); the printed residue limits are kept; source: E. coli BL21, purified (Sepharose amylose column), dialyzed against PBS; not shown: MBP, N-terminal, kept

[11] = target: T6, MBP_R → D_shortPPII_ErbB2 (human (by the printed accession …, UniProt P04626-1 1103-1194, R to D at position 44 (position 1146 in the original ErbB2 sequence))); assay: ELISA; direct binding: 100 nM/well of GST_SH3_p130Cas (or mutants) coated in PBS overnight at 4 °C; MBP-tagged ErbB2 proteins (100 nM/well) in PBS for 2 h; detected with anti-MBP; normalized on GST_ctrl and MBP_ctrl; settings: both partners purified
T6 construct: ErbB2 cytosolic portion, aminoacids 1103-1194, with R to D at position 44 of the fragment (1146 in ErbB2); motif V[DPQPPSP]R; source: E. coli BL21, purified (Sepharose amylose column); not shown: MBP, N-terminal, kept

MBP_longPPII_ErbB2 = target: T7, MBP_longPPII_ErbB2 (human (by the printed accession …, UniProt P04626-1 1103-1255)); assay: co-IP; in vitro binding assay: GST-tagged p130Cas and MBP-tagged ErbB2 purified proteins mixed in Interaction Buffer with 1% BSA overnight at 4 °C; immunoprecipitated with anti-MBP and proteinA Sepharose; blot anti-GST; settings: both partners purified
T7 construct: ErbB2 cytosolic portion, aminoacids 1103-1255 (isoform 1, P04626-1); the printed residue limits are kept; source: E. coli BL21, purified (Sepharose amylose column), dialyzed against PBS; not shown: MBP, N-terminal, kept

MBP_shortPPII_ErbB2 [12] = target: T5, MBP_shortPPII_ErbB2; assay: far-Western, overlay or dot blot; 1 μl of GST-tagged p130Cas proteins spotted on nitrocellulose; probed with MBP-tagged ErbB2 protein (1 μg/ml) in Interaction Buffer (50 mM Tris-HCl pH7.4, 150 mM NaCl, 1%Triton-X100) at 4 °C overnight; detected with anti-MBP; settings: both partners purified

Molecule: O=C(CNC(=O)NC1CC1)Nc1nnc(C23CC4CC(CC(C4)C2)C3)s1 [Compound 1]
- Kd [1]: 200 nM
- inhibition of GST_SH3_p130Cas/MBP_shortPPII_ErbB2 association [2]: dose-dependent inhibition
- efficiency in preventing binding between Fl-GST_SH3_p130Cas and MBP_shortPPII_ErbB2 [3]: more efficient
- association of p130Cas to ErbB2 (co-immunoprecipitation) [4]: reduced the association
- EC50 [5]: 52.3 ± 6.38 µM
- effect on cell proliferation [6]: no significant effect
- effect on efficacy of Trastuzumab treatment (SKBR3 cells): significantly enhances
- effect on sensitivity of resistant cells to Trastuzumab [7]: partially restores

- Kd ([1]; fluorescence quenching of Fl-GST_SH3_p130Cas, emission at 518 nm, nonlinear least-squares fit, read-out: KD (equilibrium dissociation constant)): 5000 nM
- inhibition of GST_SH3_p130Cas/MBP_shortPPII_ErbB2 association [2]: dose-dependent inhibition
- association of p130Cas to ErbB2 (co-immunoprecipitation) [4]: reduced the association
- EC50 [5]: 240 ± 26 µM
- EC50 [8]: 274 ± 27.2 µM
Molecule: NS(=O)(=O)N[C@H]1CCCc2ccccc21 [Compound 2]
- concentration at which cytotoxic effects appear (BT474 cells): > 250 µM
- effect on cell proliferation [6]: did not have

- inhibition of GST_SH3_p130Cas/MBP_shortPPII_ErbB2 association [2]: no modulation
Molecule: N#CC(Cc1ccc(O)cc1)c1ccc(O)cc1 (stereo not drawn) [DPN, Diarylpropionitrile, reference compound]

Molecule: T-DM1
- patients in whom treatment failed to induce response [9]: 57%

- Kd (MBP_shortPPII_ErbB2 [10]): 40.7 nM
B1: Fl-GST_SH3_p130Cas (domain or fragment, UniProt P56945 3-71, looked up)
chain: HLNVLAKALYDNVAESPDELSFRKGDIMTVLEQDTQGLDGWWLCSLHGRQGIVPGNRLKILVGMYDKKP
modifications: also: fluorescein (site not given here)
notes: source: E. coli BL21, purified (Sepharose glutathione column), then tagged with fluorescein; not shown: GST, N-terminal, kept

- binding result [11]: binds
- binding result (MBP_longPPII_ErbB2): binds
- binding result (MBP_shortPPII_ErbB2 [12]): binds
B2: GST_SH3_p130Cas (domain or fragment, UniProt P56945 3-71, looked up)
chain: HLNVLAKALYDNVAESPDELSFRKGDIMTVLEQDTQGLDGWWLCSLHGRQGIVPGNRLKILVGMYDKKP
notes: p130Cas SH3 domain, aminoacids 3-71, amplified from cDNA and cloned in pGEX-4T3; also called SH3 domain of p130Cas; source: E. coli BL21, purified (Sepharose glutathione column), dialyzed against PBS; not shown: GST, N-terminal, kept
